Here are results for 13 compounds from patent US12091426B2, “Bifunctional degraders of hematopoietic progenitor kinase and therapeutic uses thereof” (Nurix Therapeutics, Inc., priority 2021, dated 2024).

Where only a bound is given, the exact number is not on record here.

The target of this test is T1, HPK1 (Homo sapiens, UniProt Q92918).
T1 construct: A HiBiT tag was introduced by CRISPR on the N terminus of HPK1 in Jurkat cells; host or cells: Jurkat cells (ATCC TIB-152), monoclonal line with CRISPR knock-in of HiBiT at the endogenous HPK1 locus
Description: HPK1 Cellular HiBit Degradation Assay. In kind it is cell-based. The following applies: HiBiT HPK1 Jurkat cells, 24 hrs; for DC50: concentration at which 50% of HPK1 was remaining, read-out: DC50 Category; for Dmax: Jurkat, read-out: Dmax Category. The procedure, abridged: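 Jurkat cells with CRISPR knock-in N-terminal HiBiT-HPK1 were treated with CTMs (11-point, 3.16-fold, 10 uM to 0.1 nM final) for 24 hrs at 37° C. HiBiT lytic luminescence, with parental Jurkat as background and DMSO as 100%, gave % HPK1 remaining; four-parameter fit yielded DC50 and Dmax (100 minus lowest % remaining).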

Setting [1] is: maximum degradation vs DMSO vehicle control.

T1 sequence (Q92918 whole entry): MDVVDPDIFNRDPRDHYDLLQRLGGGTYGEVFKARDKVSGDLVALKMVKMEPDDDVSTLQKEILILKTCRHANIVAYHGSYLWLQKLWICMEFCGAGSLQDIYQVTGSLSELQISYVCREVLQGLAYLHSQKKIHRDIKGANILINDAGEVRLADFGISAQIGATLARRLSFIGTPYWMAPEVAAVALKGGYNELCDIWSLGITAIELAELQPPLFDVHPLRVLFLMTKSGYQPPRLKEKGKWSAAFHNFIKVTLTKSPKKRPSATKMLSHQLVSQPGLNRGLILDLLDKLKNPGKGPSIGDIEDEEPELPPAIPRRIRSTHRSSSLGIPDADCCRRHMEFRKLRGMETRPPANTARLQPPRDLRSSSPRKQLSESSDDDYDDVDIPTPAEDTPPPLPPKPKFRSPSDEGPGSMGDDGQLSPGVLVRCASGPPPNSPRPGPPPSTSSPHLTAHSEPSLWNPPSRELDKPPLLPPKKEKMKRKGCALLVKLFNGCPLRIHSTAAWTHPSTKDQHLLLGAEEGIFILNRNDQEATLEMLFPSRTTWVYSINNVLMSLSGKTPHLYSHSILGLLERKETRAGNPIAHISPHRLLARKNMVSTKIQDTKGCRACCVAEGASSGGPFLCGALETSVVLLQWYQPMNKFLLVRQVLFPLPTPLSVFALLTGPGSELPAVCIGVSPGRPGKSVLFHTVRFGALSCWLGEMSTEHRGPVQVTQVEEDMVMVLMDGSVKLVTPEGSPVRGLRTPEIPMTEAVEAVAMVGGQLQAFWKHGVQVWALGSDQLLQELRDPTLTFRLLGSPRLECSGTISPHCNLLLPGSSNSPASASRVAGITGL

On to `CC(C)n1cnc2cc(-c3ccc4c(c3)N([C@H]3C[C@@H](N5CCCCC5)C3)C(=O)C43CCN(C(=O)[C@H]4CC[C@H](C(=O)N5CCC(N(C)c6ccc(C7CCC(=O)NC7=O)cc6)CC5)CC4)CC3)nc(Nc3ccncc3F)c21` (mixture of isomers) [Example 136, (3RS)-3-{4-[methyl({1-[(1R,4R)-4-[(6-{4-[(3-fluoropyridin-4-yl)amino]-3-(propan-2-yl)-3H-imidazo[4,5-c]pyridin-6-yl}-2-oxo-1-[(1S,3S)-3-(piperidin-1-yl)cyclobutyl]-1,2-dihydrospiro[indole-3,4′-piperidin]-11′-yl)carbonyl]cyclohexanecarbonyl]piperidin-4-yl})amino]phenyl}piperidine-2,6-dione], for which the 50% degradation concentration (DC50) – broadly, the concentration giving 50% degradation – was < 0.1 µM. For the same compound, under setting [1], the Dmax (as a rule, the largest share of the target that was removed) lay within 70 to 85%.
With `CC(C)n1cnc2cc(-c3ccc4c(c3)N([C@H]3C[C@@H](N5CCCCC5)C3)C(=O)C43CCN(C(=O)C4(C)CCN(C(=O)C5CCN(c6ccc(C7CCC(=O)NC7=O)c(F)c6)CC5)CC4)CC3)nc(NC3CC3)c21` (mixture of isomers) [Example 210, (3RS)-3-(4-{4-[4-({6-[4-(cyclopropylamino)-3-(propan-2-yl)-3H-imidazo[4,5-c]pyridin-6-yl]-2-oxo-1-[(1S,3S)-3-(piperidin-1-yl)cyclobutyl]-1,2-dihydrospiro[indole-3,4′-piperidin]-1′-yl}carbonyl)-4-methylpiperidine-1-carbonyl]piperidin-1-yl}-2-Fluorophenyl)piperidine-2,6-dione], the 50% degradation concentration (DC50) was < 0.1 µM. Besides, under setting [1], the Dmax fell in the range of 70 to 85%.
As to `CC(C)n1cnc2cc(-c3ccc4c(c3)N([C@H]3C[C@@H](N5CCCCC5)C3)C(=O)C43CCN(C(=O)[C@H]4C[C@@H](C)CN(C(=O)C5CCN(c6ccc(C7CCC(=O)NC7=O)cn6)CC5)C4)CC3)nc(NC3CC3)c21` (mixture of isomers) [Example 246, (3RS)-3-(6-{4-[(3S,5R)-3-({6-[4-(cyclopropylamino)-3-(propan-2-yl)-3H-imidazo[4,5-c]pyridin-6-yl]-2-oxo-1-[(1S,3S)-3-(piperidin-1-yl)cyclobutyl]-1,2-dihydrospiro[indole-3,4′-piperidin]-1′-yl}carbonyl)-5-methylpiperidine-1-carbonyl]piperidin-1-yl}pyridin-3-yl)piperidine-2,6-dione], the DC50 was 0.1 to 0.5 µM. In addition, the Dmax under setting [1] fell in the range of 50 to 70%.
For `CC(C)n1cnc2cc(-c3ccc4c(c3)N([C@H]3C[C@@H](N5CCCCC5)C3)C(=O)C43CCN(C(=O)C4CCN(C(=O)C5CCN(c6ccc(N7CCC(=O)NC7=O)cc6)CC5)CC4)CC3)nc(NC3CC3)c21` [Example 69, 1-(4-{4-[4-({6-[4-(cyclopropylamino)-3-(propan-2-yl)-3h-imidazo[4,5-c]pyridin-6-yl]-2-oxo-1-[(1S,3S)-3-(piperidin-1-yl)cyclobutyl]-1,2-dihydrospiro[indole-3,4′-piperidin]-1′-yl}carbonyl)piperidine-1-carbonyl]piperidin-1-yl}phenyl)-1,3-diazinane-2,4-dione], in that order: < 0.1 µM and 70 to 85%.
As to `CC(C)n1cnc2cc(-c3ccc4c(c3)N([C@H]3C[C@@H](N5CCCCC5)C3)C(=O)C43CCN(C(=O)C4CCN(C(=O)C5CCN(c6ccc(C7CCC(=O)NC7=O)cn6)CC5)CC4)CC3)nc(Oc3ccccc3F)c21` (mixture of isomers) [Example 76, (3RS)-3-(6-{4-[4-({6-[4-(2-fluorophenoxy)-3-(propan-2-yl)-3H-imidazo[4,5-c]pyridin-6-yl]-2-oxo-1-[(1S,3S)-3-(piperidin-1-yl)cyclobutyl]-1,2-dihydrospiro[indole-3,4′-piperidin]-1′-yl}carbonyl)piperidine-1-carbonyl]piperidin-1-yl}pyridin-3-yl)piperidine-2,6-dione], the DC50 is 0.1 to 0.5 µM. In addition, the Dmax under setting [1] was > 85%.
For `CC(C)n1cnc2cc(-c3ccc4c(c3)N([C@H]3C[C@@H](N5CCCCC5)C3)C(=O)C43CCN(C(=O)CC4CCN(C(=O)C5CCN(c6ccc(C7CCC(=O)NC7=O)cn6)CC5)CC4)CC3)nc(NC3CC3)c21` (mixture of isomers) [Example 162, (3RS)-3-(6-{4-[4-(2-{6-[4-(cyclopropylamino)-3-(propan-2-yl)-3H-imidazo[4,5-c]pyridin-6-yl]-2-oxo-1-[(1S,3S)-3-(piperidin-1-yl)cyclobutyl]-1,2-dihydrospiro[indole-3,4′-piperidin]-1′-yl}-2-oxoethyl)piperidine-1-carbonyl]piperidin-1-yl}pyridin-3-yl)piperidine-2,6-dione], in that order: < 0.1 µM and 70 to 85%.
For `CC(C)n1cnc2cc(-c3ccc4c(c3)N([C@H]3C[C@@H](N5CCCCC5)C3)C(=O)C43CCN(C(=O)[C@@H]4C[C@H]5CC[C@@H](C4)N5C(=O)C4CCN(c5ccc(C6CCC(=O)NC6=O)cn5)CC4)CC3)nc(NC3CC3)c21` (mixture of isomers) [Example 286, (3SR)-3-(6-{4-[(1S,3R,5RS)-3-({6-[4-(cyclopropylamino)-3-(propan-2-yl)-3H-imidazo[4,5-c]pyridin-6-yl]-2-oxo-1-[(1S,3S)-3-(piperidin-1-yl)cyclobutyl]-1,2-dihydrospiro[indole-3,4′-piperidin]-1′-yl}carbonyl)-8-azabicyclo[3.2.1]octane-8-carbonyl]piperidin-1-yl}pyridin-3-yl)piperidine-2,6-dione], the half-maximal degradation concentration (DC50) was < 0.1 µM. Also, the greatest degradation seen (Dmax) under setting [1] is 70 to 85%.
For the compound `CC(C)n1cnc2cc(-c3ccc4c(c3)N([C@H]3C[C@@H](N5CCCCC5)C3)C(=O)C43CCN(C(=O)C4(C)CCN(C(=O)C5CCN(c6ccc([C@H]7CCC(=O)NC7=O)cn6)CC5)CC4)CC3)nc(NC3CC3)c21` (single isomer, unassigned) [Example 212], the DC50 is < 0.1 µM. The “Dmax Category” value under setting [1] is on record as “B (B: >70%-<85%)”.
In the case of `CC(C)n1cnc2cc(-c3ccc4c(c3)N([C@H]3C[C@@H](N5CCCCC5)C3)C(=O)C43CCN(C(=O)C[C@H]4CCCN(C(=O)C5CCN(c6ccc(C7CCC(=O)NC7=O)cn6)CC5)C4)CC3)nc(NC3CC3)c21` (mixture of isomers) [Example 296, (3RS)-3-(6-{4-[(3R)-3-(2-{6-[4-(cyclopropylamino)-3-(propan-2-yl)-3H-imidazo[4,5-c]pyridin-6-yl]-2-oxo-1-[(1S,3S)-3-(piperidin-1-yl)cyclobutyl]-1,2-dihydrospiro[indole-3,4′-piperidin]-1′-yl}-2-oxoethyl)piperidine-1-carbonyl]piperidin-1-yl}pyridin-3-yl)piperidine-2,6-dione], the 50% degradation concentration (DC50) fell in the range of 0.1 to 0.5 µM. For the same compound, the Dmax under setting [1] lay within 70 to 85%.
Regarding `CC(C)n1cnc2cc(-c3ccc4c(c3)N([C@H]3C[C@@H](N5CCCCC5)C3)C(=O)C43CCN(C(=O)C[C@H]4CCCN(C(=O)CC5CCN(c6ccc(C7CCC(=O)NC7=O)cn6)CC5)C4)CC3)nc(NC3CC3)c21` (mixture of isomers) [Example 297, (3RS)-3-[6-(4-{2-[(3R)-3-(2-{6-[4-(cyclopropylamino)-3-(propan-2-yl)-3H-imidazo[4,5-c]pyridin-6-yl]-2-oxo-1-[(1S,3S)-3-(piperidin-1-yl)cyclobutyl]-1,2-dihydrospiro[indole-3,4′-piperidin]-1′-yl}-2-oxoethyl)piperidin-1-yl]-2-oxoethyl}piperidin-1-yl)pyridin-3-yl]piperidine-2,6-dione], the half-maximal degradation concentration (DC50) fell in the range of 0.5 to 1 µM. In addition, the Dmax under setting [1] was 50 to 70%.
For `CC(C)n1cnc2cc(-c3ccc4c(c3)N([C@H]3C[C@@H](N5CCCCC5)C3)C(=O)C43CCN(C(=O)c4ccc(C(=O)N5CCN(c6ccc7c(c6)C(=O)N(C6CCC(=O)NC6=O)C7=O)CC5)cc4)CC3)nc(Nc3ccncc3F)c21` (mixture of isomers) [Example 42, 2-[(3RS)-2,6-dioxopiperidin-3-yl]-5-(4-{4-[(6-{4-[(3-Fluoropyridin-4-yl)amino]-3-(propan-2-yl)-3H-imidazo[4,5-c]pyridin-6-yl}-2-oxo-1-[(1S,3S)-3-(piperidin-1-yl)cyclobutyl]-1,2-dihydrospiro[indole-3,4′-piperidin]-1′-yl)carbonyl]benzoyl}piperazin-1-yl)-2,3-dihydro-1H-isoindole-1,3-dione] the same measures were 0.5 to 1 µM and 50 to 70%.
For `Cc1cc(C(=O)N2CCC3(CC2)C(=O)N([C@H]2C[C@@H](N4CCCCC4)C2)c2cc(-c4cc5ncn(C(C)C)c5c(Nc5ccccc5F)n4)ccc23)ccc1C(=O)N1CCN(c2ccc3c(c2)C(=O)N(C2CCC(=O)NC2=O)C3=O)CC1` (mixture of isomers) [Example 125, 2-[(3RS)-2,6-dioxopiperidin-3-yl]-5-(4-{4-[(6-{4-[(2-fluorophenyl)amino]-3-(propan-2-yl)-3H-imidazo[4,5-c]pyridin-6-yl}-2-oxo-1-[(1S,3S)-3-(piperidin-1-yl)cyclobutyl]-1,2-dihydrospiro[indole-3,4′-piperidin]-1′-yl)carbonyl]-2-methylbenzoyl}piperazin-1-yl)-2,3-dihydro-1H-isoindole-1,3-dione], in that order: 0.5 to 1 µM and 50 to 70%.
As for `CC(C)n1cnc2cc(-c3ccc4c(c3)N([C@H]3C[C@@H](N5CCCCC5)C3)C(=O)C43CCN(C(=O)[C@H]4CC[C@@H](C(=O)N5CCN(c6ccc7c(c6)C(=O)N(C6CCC(=O)NC6=O)C7=O)CC5)CC4)CC3)nc(Nc3ccccc3F)c21` (mixture of isomers) [Example 31, 2-[(3RS)-2,6-dioxopiperidin-3-yl]-5-{4-[(1S,4s)-4-[(6-{4-[(2-fluorophenyl)amino]-3-(propan-2-yl)-3H-imidazo[4,5-c]pyridin-6-yl}-2-oxo-1-[(1S,3S)-3-(piperidin-1-yl)cyclobutyl]-1,2-dihydrospiro[indole-3,4′-piperidin]-1′-yl)carbonyl]cyclohexanecarbonyl]piperazin-1-yl}-2,3-dihydro-1H-isoindole-1,3-dione], the DC50 was 0.1 to 0.5 µM. Further, the Dmax under setting [1] fell in the range of 70 to 85%.
